For 30 compounds, TGI and GI50 results are on record in PubChem BioAssay (NCI).

What all share (test): NCI tumour cell line growth inhibition, 48 h
Test [1] relates to HL-60(TB) leukemia.
Test [2] relates to NCI-H522 lung.
Test [3] deals with SK-MEL-2 melanoma.
For test [4], the system named is OVCAR-3 ovarian.
Test [5] concerns COLO 205 colon.
The subject of test [6] is IGROV1 ovarian.
Test [7] has as its system UO-31 renal.
The subject of test [8] is SK-MEL-5 melanoma.
The subject of test [9] is MDA-MB-231 breast.
Test [10] relates to HS 578T breast.

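Grown in 96-well plates, cells were treated for 48 hours with each compound at five concentrations. Insufficient inhibition: endpoint recorded as highest concentration tested. Abbreviation: GI50, concentration required for 50% inhibition of growth. TGI: concentration producing complete growth inhibition.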 Where a SMILES comes first, the peptide text is derived from it. [ ]: non-standard residue; d: D form. The star is where a group is joined. Cbz = O=C(OCc1ccccc1)*; Aib = CC(C)(N)C(=O)O

As to `CSc1nc(-c2ccccc2)nc(=[N+]2CCOCC2)s1`, the TGI in [1] was above 100 µM; in [2], 84.1 µM; in [3] it was above 100 µM; in test [4], above 100 µM; in test [5] it was 98.7 µM; in test [6], above 100 µM. Further, the TGI in test [7] and in test [8] was above 100 µM each time.
On to `CCCCOc1ccc(S(=O)(=O)/N=C(\NO)Nc2ccc(Cl)cc2)cc1`, for which the TGI in [2] amounted to 30.1 µM; in test [3], 31.6 µM; in test [4], 28.4 µM; in [5], 35.7 µM; in test [9], 33.9 µM; in [10] it was 51.3 µM. Also, the values for the TGI in [7] and in [8] were 24.6 µM and 28.1 µM, respectively.
Take `CCN(CCC#N)C(=O)Nc1ccccc1`: the TGI in test [2], in test [3], in [4], in test [5], in test [6] and in test [9] was above 100 µM in each case. Besides, the TGI in test [7] and in test [8] was above 100 µM throughout.
In the case of `CC(C)(C)CC(C)(C)NCC(O)COc1ccc(C(C)(C)c2ccc(OCC(O)CNC(C)(C)CC(C)(C)C)cc2)cc1` (stereo unspecified), the TGI in test [2] amounted to 3.02 µM; in [3], 3.28 µM; in test [4], 2.47 µM; in test [5] it was 1.47 µM; in test [6], 3.23 µM; in [7], 2.98 µM. Further, in test [8], the TGI was found to be 2.67 µM.
For the compound `O=c1[nH]c2ccc(C(F)(F)F)cc2nc1C(F)(F)F`, the TGI amounted to 47.6 µM in [2]; 43.1 µM in test [3]; 41.8 µM in test [4]; 39.8 µM in [5]; 95.3 µM in [6]; 96.5 µM in test [9]. The TGI in [7] was determined as 75.6 µM; in test [8], 35.5 µM.
Take `O=S(=O)(O)c1cc(N=[N+]([O-])c2ccc(N=Nc3ccccc3)cc2S(=O)(=O)O)ccc1/C=C/c1ccc(N=[N+]([O-])c2ccc(N=Nc3ccccc3)cc2S(=O)(=O)O)cc1S(=O)(=O)O`: the TGI in [1], in test [2], in test [3], in test [4], in [5] and in [6] was above 100 µM in each case. Also, the TGI in [7] and in test [8] was above 100 µM in each case.
`Cc1cc(O)c(C(C)C)cc1C(=S)Nc1ccc(Cl)cc1`: the TGI in [1] worked out at 24.9 µM; in [2], 17.8 µM; in test [3], 27.8 µM; in [4] it was 27.9 µM; in [5], 31.5 µM; in [6], 15.9 µM. Also, the TGI in test [10] turned out to be 28.9 µM; in test [8] it was 23.8 µM.
For the compound `N=C(N)c1ccc(-c2ccc(-c3ccc(Cl)cc3Cl)s2)nc1`, the GI50 was 2.19 µM in [2]; 2.79 µM in [3]; 1.83 µM in [4]; 1.68 µM in [9]; 2.15 µM in [10]; 1.57 µM in test [7]. For the same compound, the GI50 in test [8] was 1.77 µM. Besides, the TGI in test [2] came out at 4.88 µM; in [3], 7.32 µM; in test [4] it was 3.35 µM; in test [9], 3.26 µM; in test [10], 4.88 µM; in test [7], 2.93 µM. The TGI in [8] was found to be 3.24 µM.
Turning to `c1ccc(OCc2nnc(CCCCCCCCc3nnc(COc4ccccc4)o3)o2)cc1`, the TGI in [1], in test [2], in [3], in [4], in test [5] and in test [6] was above 100 µM each time. Also, the TGI in test [9], in test [7] and in test [8] was above 100 µM each time.
Turning to `Cc1ccc2c(c1)Nc1ccccc1P2(=O)O`, the TGI in [1], in test [2], in [3], in [4], in test [5] and in test [6] was above 100 µM each time. In addition, the TGI in [9], in test [7] and in [8] was above 100 µM each time.
In the case of `COc1ccc(C2=Nc3c(nc(SC)[nH]c3=O)NC(c3ccccc3)C2)cc1` (stereo unspecified), the TGI in test [1] is 42.5 µM; in [2], 35.7 µM; in [3], 94.4 µM; in [4], above 100 µM; in [5], 34.8 µM; in [6], 55.6 µM. For the same compound, the values for the TGI in test [9], in test [7] and in test [8] were 30 µM, 56.3 µM and 30.1 µM, respectively.
With `O=[N+]([O-])c1ccc(Nc2cccc3c2[nH]c2c(-c4ccccc4)nccc23)c([N+](=O)[O-])c1`, the TGI in test [1], in [2], in test [3], in [4], in [5] and in test [6] was above 100 µM throughout. In addition, the TGI in test [7] and in test [8] was above 100 µM each time.
Consider `CCc1n[nH]c(=O)[nH]1`, for which the TGI in test [2], in [3], in test [4], in test [5], in [6] and in test [9] was above 100 µM in each case. Also, the TGI in test [10], in test [7] and in test [8] was above 100 µM throughout.
`COc1ccc(C2=NN(c3nsc4ccccc34)C(=O)CC2)cc1`: the TGI in [1], in [3], in test [4], in [5], in [6] and in [7] was above 100 µM throughout. The same compound gave a TGI in [8] above 100 µM.
Regarding `Cc1cc(OCC(O)CO)ccc1Cl` (stereo unspecified), the TGI in test [1], in test [2], in test [3], in [4], in test [5] and in [6] was above 100 µM throughout. For the same compound, the TGI in [7] and in test [8] was above 100 µM throughout.
For `CC1C(c2ccccc2)NC(c2ccccc2)CC1(N)C#N` (stereo unspecified), the TGI in test [1], in test [2], in test [4], in [5], in test [6] and in [9] was above 100 µM each time. Also, the TGI in [10], in [7] and in [8] was above 100 µM throughout.
Turning to `COc1ccc(/C=C2\OC(=O)C(Cl)=C2c2ccc(OC)c(Cl)c2)cc1`, the TGI was above 100 µM in test [1]; 79 µM in test [2]; above 100 µM in [3]; 43.7 µM in test [4]; above 100 µM in [5]; above 100 µM in test [6]. The results for the TGI in test [10], in test [7] and in test [8] were 73.7 µM, 48.2 µM and 48.6 µM, respectively.
In the case of `Cn1c2ccccc2c2c3c(c4c5ccccc5n(C)c4c21)C(=O)N(c1ccccc1)C3=O`, the TGI in test [2], in test [3], in test [4], in [5], in [6] and in test [9] was above 100 µM in each case. The TGI in [7] and in test [8] was above 100 µM throughout.
Turning to `CCN(CC)C(=O)c1cc([N+](=O)[O-])c(=O)n2c1[nH]c1ccccc12`, the TGI in [1], in test [2], in test [4], in [5], in [6] and in test [9] was above 100 µM in each case. The TGI in test [10], in test [7] and in test [8] was above 100 µM each time.
For `Cc1cc(S(=O)(=O)Nc2n[nH]c(Nc3ccccc3)n2)c(SSc2cc(Cl)c(C)cc2S(=O)(=O)Nc2n[nH]c(Nc3ccccc3)n2)cc1Cl`, the TGI is 61.1 µM in [1]; above 100 µM in test [4]; above 100 µM in test [5]; above 100 µM in test [6]; above 100 µM in [9]; above 100 µM in test [10]. Further, the TGI in [7] and in test [8] was above 100 µM in each case.
As for `CC(C)=C=CP(=O)(O)c1ccccc1`, the TGI in test [1], in test [2], in [3], in test [4], in test [5] and in test [6] was above 100 µM in each case. Moreover, the TGI in test [10] and in test [8] was above 100 µM throughout.
Regarding `CC(C)(NC(=O)C(C)(C)NC(=O)OCc1ccccc1)C(=O)O` (Cbz-[Aib]-[Aib]-OH), the TGI in test [2], in [3], in test [4], in [6], in test [9] and in test [10] was above 100 µM each time. Also, the TGI in test [7] and in test [8] was above 100 µM each time.
Consider `Cc1ccc(S(=O)(=O)N/N=C\c2c3ccccc3[n+](C)c3ccccc23)cc1`, for which the TGI in test [1] was 59.6 µM; in test [2], above 100 µM; in test [3], above 100 µM; in [4], 71.5 µM; in test [6] it was above 100 µM; in test [7] it was 88.9 µM. The TGI in test [8] was determined as 98.5 µM.
In the case of `Cc1ccc2c(=O)cc(-c3cccc(F)c3)[nH]c2n1`, the TGI was 0.0621 µM in test [1]; 0.0504 µM in [2]; 0.0415 µM in [4]; 0.0567 µM in test [5]; above 100 µM in test [6]; 1.11 µM in test [9]. In addition, the TGI in [10] amounted to 0.0591 µM; in [8], 2.16 µM.
Consider `O=NNc1c[nH]c(=O)[nH]c1=O`, for which the TGI in [1], in [2], in test [3], in test [4], in [5] and in [6] was above 100 µM in each case. Moreover, the TGI in test [9], in test [7] and in test [8] was above 100 µM throughout.
As for `NS(=O)(=O)c1ccc(NCc2nc3ccccc3[nH]2)cc1`, the TGI in test [2], in test [3], in test [4], in test [5], in [6] and in [9] was above 100 µM each time. The TGI in [10], in test [7] and in [8] was above 100 µM each time.
As for `CCCCCCCCCCOc1ccc(N=Nc2nnc(-c3ccc(OCCCCC)cc3)s2)cc1`, the TGI in test [2], in test [4], in test [5], in test [6], in test [9] and in test [10] was above 100 µM throughout. In addition, in test [8], the TGI was above 100 µM.
`O=C(O)c1cccc(S(=O)(=O)NN2C(=O)CSC2c2c(O)ccc3ccccc23)c1` (stereo unspecified): the TGI in test [1] was 59.8 µM; in test [2] it was 77.6 µM; in [3], above 100 µM; in test [4], 62.5 µM; in test [5], above 100 µM; in test [6], 45.1 µM. The TGI in test [9] is above 100 µM; in test [7], above 100 µM; in test [8], 62.5 µM.
With `Cn1c(-c2c(C3=CC(=O)N(c4ccccc4)C3=O)c3ccccc3n2C)cc2ccccc21`, the TGI in [1], in test [2], in test [3], in test [4], in test [5] and in [6] was above 100 µM throughout. Moreover, the TGI in test [9], in [7] and in [8] was above 100 µM each time.
As to `CC(C)N1[C@@H]2CCCC[C@H]2N(C(C)C)[P+]1=O`, the TGI in test [2], in test [4], in test [5], in test [10], in test [7] and in test [8] was above 100 µM throughout.
